Series [1] concerns HG-3 and PGA-1 cell lines. Briefly: alamarBlue cell viability assay, mean of both CLL cell lines. Type of series: cell-based, human. To be noted: mean of HG-3 and PGA-1. (Resazurin is reduced to fluorescent resorufin, in cell work by metabolically active cells.)
The test system of another series is NCI-H23. Kind of series: NCI-60 five-dose assay. Type of series: cell-based, human. As to the method:
(§1) A number of our most promising compounds identified through preliminary cell viability testing (23c, 23d, 23f, 23h, 23l, 23m, 23n, 23o, 24f, 24l, 25n and 26n) were selected for NCI drug screening in the 60-cell-line panel. The panel includes nine subcategories based on cancer tissue types, which include leukemia, ovarian, central nervous system, breast, lung, prostate, skin, renal and colon cancer. The compounds were initially assessed in a one-dose assay at a fixed treatment concentration of 10 µM. The compounds selected for further investigation were progressed to a five-dose assay across the concentration ranges of 0.01, 0.1, 1, 10 and 100 µM [72]. The endpoints assessed in the screening protocol were GI50, TGI and LC50 [72].

The subject of the next series is SF539. Briefly: NCI-60 five-dose assay. Type of series: cell-based, human. Here is the method:
as §1

A further series relates to NCI-H226. Briefly: NCI-60 five-dose assay. Type of series: cell-based, human. Here is the method:
as §1

Another series relates to HOP-92. Briefly: NCI-60 five-dose assay. Type of series: cell-based, human. Here is the method:
as §1

In a further series the test system is SNB-75. Briefly: NCI-60 five-dose assay. Type of series: cell-based, human. As to the method:
as §1

In another series the test system is MDA-MB-468. Kind of series: NCI-60 five-dose assay. Type of series: cell-based, human. As to the method:
as §1

In the next series the test system is NCI-H332M. Briefly: NCI-60 five-dose assay. Type of series: cell-based, human. As to the method:
as §1

The subject of another series is LOX IMV1. Kind of series: NCI-60 five-dose assay. Type of series: cell-based, human. Here is the method:
as §1

The test system of series [2] is NCI 60 cancer cell line panel. Briefly: NCI-60 five-dose assay, full-panel means. Type of series: cell-based. The essentials:
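NCI 60-cell-line screen: one-dose test at 10 µM, then selected compounds run in five-dose format at 0.01, 0.1, 1, 10 and 100 µM. Endpoints derived were GI50, TGI and LC50.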

The test system of a further series is K-562. Briefly: NCI-60 five-dose assay. Type of series: cell-based, human.
The subject of another series is leukemia cell panel. Kind of series: NCI-60 five-dose assay, leukemia cell panel mean. Type of series: cell-based, human. To be noted: mean across the six leukemia cell lines.
The test system of series [3] is HG-3 cells. Briefly: alamarBlue cell viability assay. To be noted: HG-3, 24 h; for IC50: read-out: HG-3 IC50; for viability at 10 µM: read-out: cell viability, HG-3, 10 µM, 24 h, vehicle = 100%.
The next series deals with HL-60(TB). Briefly: NCI-60 five-dose assay. Type of series: cell-based, human.
The subject of a further series is SR. Kind of series: NCI-60 five-dose assay. Type of series: cell-based, human.
In series [4] the test system is HG-3 cells. Briefly: Annexin V/PI apoptosis assay (FACS). Type of series: cell-based, human. As to the method: (§2) The pro-apoptotic effects of selected nitrovinylethanoanthracene compounds 20a and 20f and anthracene chalcones 23a and 25n in HG-3 cells and PGA-1 cells was then investigated using FITC (fluorescein isothiocyanate), Annexin V/PI (propidium iodide) and FACS (fluorescence-activated cell sorting) analysis to characterize the mode of cellular death induced. Apoptosis was assessed as % total apoptosis (total of early (Q3) and late (Q2) apoptosis).
(§3) CLL cells PGA-1 and HG-3 (1 × 10^6 cells/mL) were treated at 37 °C with either the vehicle (1% (v/v) DMSO) or the ethanoanthracene compounds 20a, 20f, 23a and 25n (10 µM, 5 µM and 1 µM) for 48 h, following the protocol previously described. The cells were then harvested via centrifugation at 400× g in a temperature-controlled Sorvall centrifuge. The cells were rinsed with Ca^2+ Annexin-V-binding buffer (0.1 M HEPES, pH 7.4; 0.14 M NaCl; 25 mM CaCl2, 0.5 mL). The samples were resuspended in FITC Annexin V (diluted 1:33 in Ca^2+ Annexin V-binding buffer, 50 µL) and incubated for 10 min (on ice and protected from light). The samples were washed with Annexin-V-binding buffer and resuspended in a PI solution (0.5 µg/mL, 500 µL) and analyzed within 1 h using a BD Accuri C6 flow cytometer counting 10,000 cells using the FlowJo software Version 10 (FlowJo LLC, Ashland, OR, USA).

Another series relates to PGA-1 cells. Briefly: Annexin V/PI apoptosis assay (FACS). Type of series: cell-based, human. To be noted: PGA-1, 10 µM. As to the method:
as §2, §3

The subject of series [5] is healthy-donor peripheral blood mononuclear cells (PBMCs). Briefly: Annexin V/PI assay in donor PBMCs. Type of series: cell-based. To be noted: 48 h. An excerpt: Whole blood samples from healthy donors (×5) were isolated, prepared and treated following the protocol previously described. The percentage of apoptosis observed in the treatment of isolated donor PBMCs with nitrovinylethanoanthracene 20a is concentration-dependent (Figure 11A). […] For ethanoanthracene 23a, the percentage of total apoptosis observed is illustrated in Figure 11B. […] The percentage of total apoptosis observed in the treatment of isolated donor PBMCs with the anthracene–chalcone 25n (normalized against vehicle 0.5% v/v DMSO) is illustrated in Figure 11C, and the dose-response behavior was also concentration-dependent, with compound 25n moderately toxic to healthy-donor PBMCs when treated at a 5.00 µM concentration (39%).
The human peripheral blood mononuclear cells (PBMCs) were generated as follows: peripheral blood was obtained from healthy donors (n = 2) after informed consent was received. The blood was then placed into a 50-mL falcon tube and diluted with an equal volume of phosphate-buffered saline (PBS). PBMCs were isolated using density-gradient centrifugation with LymphoPrep, as described previously. The cells were resuspended in RPMI media containing 10% FBS and 1% penicillin/streptomycin (P/S). The cells were counted using a haemocytometer and seeded into 96 well plates at a density of 1 × 10^5 cells/well (200 µL), and they were incubated at 37 °C for 1 h prior to compound treatment. The Annexin V/PI assay was used as a preliminary method of assessing the selective toxicity of the above compounds when compared with a previous alamarBlue cell viability assay in CLL cell lines. The assay was carried out as described above for the Annexin V/PI assay previously described above, and it was completed in triplicate on two independent days. Approval for this study was obtained from the School of Pharmacy and Pharmaceutical Sciences Trinity College Dublin Research Ethics Committee (2020-06-01-MS).

Setting [6] is: Homo sapiens, mean over NCI 60 cell line panel, read-out: Mean GI50 (MID GI50, full-panel mean-graph mid-point).
The mark [7] stands for this setting: Homo sapiens, mean over NCI 60 cell line panel, read-out: Mean LC50 (MID LC50).
Where [8] appears, read: mean over NCI 60 cell line panel.

Each structure is given as a SMILES string. Values joined by “and” are separate entries in the source; they are usually repeats but may differ in a detail not shown here. Equal entries are not always repeated. Where two headings read alike, the source gives them in different places.

The term viability denotes the share of living cells, or the viability signal relative to a control.

Take `O=C(/C=C/C12c3ccccc3C(c3ccccc31)C1C(=O)NC(=O)C12)c1ccc(F)cc1` (racemic) [Compound 23h]: the IC50 in [1] (Homo sapiens, CLL cell) was determined as 3.77 µM; in the series on HG-3 cells [3] (Homo sapiens), 4.65 µM. The GI50 stood at 2.61 µM with NCI-H23 (Homo sapiens); 1.69 µM in the series on SF539 (Homo sapiens, SF-539); 2.04 µM with NCI-H226 (Homo sapiens); 1.33 µM in the series with HOP-92 (Homo sapiens); 1.37 µM in the series with SNB-75 (Homo sapiens); 1.88 µM in the series on MDA-MB-468 (Homo sapiens). Moreover, the GI50 with NCI-H332M (Homo sapiens) was 2.64 µM; in the series with LOX IMV1 (Homo sapiens) it was 1.65 µM; in [2] (setting [6]), 1.7 µM; in the series with K-562 (Homo sapiens, K562, K-562), 1.42 µM; with K-562 (K-562), 1.55 µM; in the series on leukemia cell panel (Homo sapiens), 1 µM. In [2] (setting [7]), the CC50 is 14.5 µM. For the same molecule, in series [2] (setting [8]), the “Mean TGI (MID TGI, total growth inhibition)” value turned out to be 4.265 µM.
Consider `O=C(/C=C/C12c3ccccc3C(c3ccccc31)C1C(=O)NC(=O)C12)c1ccc(Cl)cc1` (racemic) [Compound 23l, (E)-9-(3-(4-Chlorophenyl)-3-oxoprop-1-en-1-yl)-9,10-dihydro-9,10-[3,4]epipyrroloanthracene-12,14-dione], for which the IC50 in [1] came to 2.72 µM; in the series on HG-3 cells [3] it was 2.23 µM. Also, the GI50 with NCI-H23 is 1.78 µM; in the series with SF539, 1.51 µM; in the series on NCI-H226 it was 1.92 µM; in the series on HOP-92 it was 1.32 µM; with SNB-75 it was 1.1 µM; in the series with MDA-MB-468, 1.7 µM. Also, the GI50 came out at 1.42 µM in the series on NCI-H332M; 1.6 µM with LOX IMV1; 1.47 µM with HL-60(TB) (HL-60(TB)); 1.62 µM in series [2] (mean over NCI 60 cell line panel, read-out: Mean GI50 (MID GI50, full-panel mean-graph mid-point)); 1.99 µM in the series with K-562 (K-562); 1.77 µM in the series with leukemia cell panel. The GI50 with SR worked out at 2.15 µM. The CC50 in [2] was 13.2 µM. Besides, the “Mean TGI (MID TGI, total growth inhibition)” value in [2] (setting [8]) amounted to 4.265 µM.
On to `O=C(C=CC12c3ccccc3C(c3ccccc31)C1C(=O)NC(=O)C12)c1ccc(Br)cc1` (centres unmarked) [Compound 23a, 9-(E)-3-(4-Bromophenyl)-3-oxoprop-1-en-1-yl)-9,10-dihydro-9,10-[3,4]epipyrroloanthracene-12,14-dione], for which the “total apoptosis (early Q3 + late Q2)” value is 33% with HG-3 cells [4] (HG-3, 1 µM); 82–95% and 95% with HG-3 cells [4] (HG-3, 10 µM); 87–97% and 89% with PGA-1 cells. In addition, the IC50 in series [1] (Homo sapiens, CLL cell) was determined as 2.33 µM; with HG-3 cells [3] (Homo sapiens) it was 2.69 µM. Moreover, the “total apoptosis (toxicity) in healthy-donor PBMCs” value in series [5] (5 µM) is 28%; in series [5] (1.25–2.5 µM) it was 5–14%. In addition, the viability at 10 µM in the series with HG-3 cells [3] (Homo sapiens) came to 0.5%.
For `O=C(C=CC12c3ccccc3C(c3ccccc31)C1C(=O)N(c3ccc(Cl)cc3)C(=O)C12)c1ccccn1` (centres unmarked) [Compound 25n, (E)-13-(4-Chlorophenyl)-9-(3-oxo-3-(pyridin-2-yl)prop-1-en-1-yl)-9,10-dihydro-9,10-[3,4]epipyrroloanthracene-12,14-dione], the “total apoptosis (early Q3 + late Q2)” value in the series on HG-3 cells [4] (HG-3, 1 µM) is 37%; in the series with HG-3 cells [4] (HG-3, 10 µM), 82–95% and 93%; in the series on PGA-1 cells, 87–97% and 87%. The IC50 in [1] (Homo sapiens, CLL cell) is 1.09 µM; in series [2] (Homo sapiens, heatmap Figure 8, concentration in molar, read-out: Log 10 IC-50 Mean (converted)), 0.741 µM; with HG-3 cells [3] (Homo sapiens), 1.31 µM. For the same molecule, the GI50 came out at 0.446 µM in the series on NCI-H23 (Homo sapiens); 0.316 µM in the series with SF539 (Homo sapiens, SF-539); 0.293 µM in the series on NCI-H226 (Homo sapiens); 1.19 µM in the series with HOP-92 (Homo sapiens); 0.627 µM in the series with MDA-MB-468 (Homo sapiens); 0.821 µM in the series with NCI-H332M (Homo sapiens). Besides, the GI50 in the series with LOX IMV1 (Homo sapiens) is 0.194 µM; with HL-60(TB) (HL-60(TB)), 0.292 µM; in the series on HL-60(TB) (Homo sapiens, HL-60, HL-60(TB)), 0.29 µM; in [2] (Homo sapiens, heatmap Figure 8, concentration in molar, read-out: Log 10 GI-50 Mean (converted)), 0.389 µM; in [2] (setting [6]), 0.245 µM; with K-562 (Homo sapiens, K562, K-562), 0.29 µM. The GI50 in the series on K-562 (K-562) is 0.293 µM; with leukemia cell panel (Homo sapiens), 0.29 µM; with SR, 0.284 µM; with SR (Homo sapiens) it was 0.28 µM. Besides, the CC50 is 41.7 µM in series [2] (Homo sapiens, heatmap Figure 8, concentration in molar, read-out: Log 10 LC-50 Mean (converted)) and 18.6 µM in series [2] (setting [7]). Also, in series [5] (5 µM), the “total apoptosis (toxicity) in healthy-donor PBMCs” value is listed as 39%. In addition, the viability at 1 µM with HG-3 cells [3] (Homo sapiens, read-out: cell viability, HG-3, 1 µM, 24 h, vehicle = 100%) was determined as 30%. Also, in the series with HG-3 cells [3] (Homo sapiens), the viability at 10 µM is 2%.

The values are drawn from paper PMC11359702, “Synthesis and Biochemical Evaluation of Ethanoanthracenes and Related Compounds: Antiproliferative and Pro-Apoptotic Effects in Chronic Lymphocytic Leukemia (CLL)” (Pharmaceuticals, 2024).
